Patent US4605674A, “Substituted acetophenones and compositions containing them” (Hoffmann-La Roche Inc., priority 1979, dated 1986)
In brackets after ≈: the same amount, converted by molar mass. Where two headings read alike, the source gives them in different places.

Columns and labels:
rhinovirus HGP = experiment: Inhibition of viral cytopathogenic effect (c.p.e.) of rhinovirus HGP in HeLa cells; type: cell-based, human rhinoviruses; settings: Enterovirus, HeLa, 48 h, read-out: IC50 against rhinovirus HGP (concentration inhibiting the viral c.p.e. by 50%)
Method: A suspension of HeLa cells (6×10^4) was mixed with rhinovirus HGP (3×10^3 plaque forming units, PFU) and was plated in a microtest plate containing the compounds to be tested serially diluted. The cells were then cultured with Eagle's minimum essential medium containing 2% calf serum, 1% tryptose phosphate broth, 100 μg/ml of streptomycin sulfate and 20 unit/ml of penicillin G. Viral c.p.e. (cytopathogenic effect) was observed by a microscope after 2 days culture at 33° C.
The antiviral activity of the tested compounds is expressed by the concentration inhibiting the viral c.p.e. by 50% when compared to the control culture (IC50).

HeLa cells = experiment: Cytotoxic symptoms in HeLa cells in the viral replication test; type: cell-based
Method: Effect of 2'-hydroxy-4,4',6'-trimethoxychalcone on the replication of rhinovirus HGP in HeLa cells was tested. Monolayers of HeLa cells (4×10^5) to which 2'-hydroxy-4,4',6'-trimethoxychelcone at various concentrations had been added were infected with rhinovirus HGP (4×10^4 PFU) for 60 minutes. Thereafter, the cells were washed with Eagle's minimum essential medium and further cultured with said medium containing 2% calf serum, 1% tryptose phosphate broth, 100 μg/ml of streptomycin sulfate and 20 units/ml of penicillin G. The total yield of the virus replicated in the culture medium was assayed 2 days after infection.
In the same manner the effect of 4'-ethoxy-2'-hydroxy-4,6'-dimethoxychalcone on the replication of rhinovirus type 21 in HeLa cells was tested.

Coxsackievirus B1 = experiment: In vivo antiviral activity against lethal infection with Coxsackievirus B1 in mice; set-up: species or system DDY mice; settings: up to 21 days
Method: The activity of the compounds against lethal infection with Coxsackievirus B1 was tested in mice. DDY mice weighing about 15 g were infected intraperitoneally with about the tenfold LD50 dose of the virus. The infected mice were treated 9 times with the compounds either orally 0, 2, 5, 18, 24, 42, 48, 66 and 72 hours or intraperitoneally 1, 2, 4, 18 and 28 hours after infection. The survivals were recorded up to 21 days.
Non-treated (controls) mice died at 3 to 5 days after infection.

in vivo = settings: mouse, DDY mice, single dose
Method: ^(1) DDY mice weighing 15-20 g were treated with a single dose of the
compound. Survivors were recorded on day 21.
^(2) Compounds were dissolved in dimethylsulfoxide.
^(3) Compounds were suspended with solution of 0.5% carboxymethyl

[1] = 20 mg/kg × 9, p.o., control 20%
[2] = 40 mg/kg × 9, p.o., control 20%
[3] = ip, i.p., dissolved in dimethylsulfoxide, day 21, read-out: LD50 i.p.
[4] = po, p.o., suspended in 0.5% carboxymethyl cellulose, day 21, read-out: LD50 p.o.

Row | SMILES | IC50 (rhinovirus HGP) [µg/mL] | cytotoxic symptom (HeLa cells; 0.1-1.0 μg/ml, rhinovirus HGP test) | Survival (Coxsackievirus B1; [1]) [%] | Survival (Coxsackievirus B1; [2]) [%] | LD50 at 504 h (in vivo; [3]) [mg/kg] | LD50 at 504 h (in vivo; [4]) [mg/kg] | Survival (Coxsackievirus B1; 20 mg/kg × 5, i.p., control 0%) [%] | Survival (Coxsackievirus B1; 40 mg/kg × 5, i.p., control 0%) [%] | cytotoxic symptom (HeLa cells; 0.03 μg/ml, rhinovirus type 21 test)
1 | COc1ccc(/C=C/C(=O)c2c(O)cc(OC)cc2OC)cc1 [2'-hydroxy-4,4',6'-trimethoxychalcone] | 0.01 (≈ 0.0318 µM) | without showing any cytotoxic symptom | 40 | 60 | > 1000 | > 5000 |  |  | 
2 | CCC(=O)Oc1cc(OC)cc(OC)c1C(=O)/C=C/c1ccc(OC)cc1 [2',4,4'-trimethoxy-6'-(propionyloxy)chalcone] | 0.01 (≈ 0.027 µM) |  |  |  | > 500 | > 5000 | 25 | 75 | 
3 | COc1ccc(/C=C/C(=O)c2c(OC)cc(OC)cc2OC(C)=O)cc1 [2'-acetoxy-4,4',6'-trimethoxychalcone] | 0.006 (≈ 0.0168 µM) |  | 40 | 70 | > 1000 | > 5000 |  | 50 | 
4 | COc1cc(O)c(C(=O)C=Cc2ccc3c(c2)OCO3)c(OC)c1 [2'-hydroxy-4',6'-dimethoxy-3,4-(methylenedioxy)-chalcone] | 0.02 (≈ 0.0609 µM) |  |  |  | > 1000 | > 5000 |  |  | 
5 | CCOc1ccc(/C=C/C(=O)c2c(O)cc(OC)cc2OC)cc1 [4-ethoxy-2'-hydroxy-4',6'-dimethoxychalcone] | 0.02 to 0.05 (≈ 0.0609 to 0.152 µM) |  |  |  | > 1000 | > 5000 |  |  | 
6 | COc1cc(O)c(C(=O)C=Cc2cccn2C)c(OC)c1 [2'-hydroxy-4',6'-dimethoxy-3-(1-methyl-pyrrol-2-yl)-acrylophenone] | 0.1 (≈ 0.348 µM) |  |  |  | > 500 | > 1000 |  |  | 
7 | CCCOc1ccc(/C=C/C(=O)c2c(OC)cc(OC)cc2OC(=O)CC)cc1 [2',4'-dimethoxy-6'-(propionyloxy)-4-propoxychalcone] | 0.1 to 0.3 (≈ 0.251 to 0.753 µM) |  |  |  | > 1000 | > 5000 |  |  | 
8 | CCOc1cc(O)c(C(=O)/C=C/c2ccc(OC)cc2)c(OC)c1 [4'-ethoxy-2'-hydroxy-4,6'-dimethoxychalcone] | 0.002 to 0.006 (≈ 0.00609 to 0.0183 µM) |  |  |  | > 1000 | > 5000 |  |  | without showing any cytotoxic symptom
9 | CCOc1cc(O)c(C(=O)/C=C/c2ccc(OC)cc2)c(OCC)c1 [2',4'-diethoxy-6'-hydroxy-4-methoxychalcone] | 0.03 to 0.1 (≈ 0.0876 to 0.292 µM) |  |  |  | > 1000 | > 2000 |  |  | 
10 | CCC(=O)Oc1cc(OC)cc(OC)c1C(=O)C=Cc1ccc2c(c1)OCO2 [2',4'-dimethoxy-3,4-(methylenedioxy)-6'-(propionyloxy)-chalcone] | 0.1 (≈ 0.26 µM) |  |  |  | > 500 | > 1000 |  |  | 
11 | COc1ccc(/C=C/C(=O)c2c(OC)cc(OC)cc2OC(=O)CCCC(=O)O)cc1 [2'-(4-carboxybutanoyloxy)-4,4',6'-trimethoxychalcone] | 0.03 (≈ 0.07 µM) |  |  |  | > 500 | > 2000 |  |  | 
12 | COc1cc(O)c(C(=O)/C=C/c2ccc(C)cc2)c(OC)c1 | 0.01 (≈ 0.0335 µM) |  |  |  | > 1000 | > 5000 |  |  | 
13 | COc1cc(O)c(C(=O)/C=C/c2ccc(OC)c(O)c2)c(OC)c1 [2',3-dihydroxy-4,4',6'-trimethoxychalcone] | 0.1 to 0.3 (≈ 0.303 to 0.908 µM) |  |  |  | > 500 | > 1000 |  |  | 
14 | CCC(=O)Oc1cc(OC)cc(OC)c1C(=O)/C=C/c1ccc(SC)cc1 [2',4'-dimethoxy-4-(methylthio)-6'-(propionyloxy)-chalcone] | 0.03 to 0.1 (≈ 0.0776 to 0.259 µM) |  |  |  | > 1000 | > 5000 |  |  | 
15 | COc1ccc(/C=C/C(=O)c2c(OC)cc(OC)cc2OC(=O)[C@H](C)N)cc1 [2'-(L-alanyloxy)-4,4',6'-trimethoxychalcone] | 0.03 to 0.1 (≈ 0.0778 to 0.259 µM) |  |  |  | > 180 | > 1000 |  |  | 
16 | CCOc1ccc(/C=C/C(=O)c2c(OC)cc(OC)cc2OC(=O)CC)cc1 [4-ethoxy-2',4'-dimethoxy-6'-(propionyloxy)-chalcone] | 0.03 to 0.1 (≈ 0.078 to 0.26 µM) |  |  |  | > 1000 | > 5000 |  |  | 
17 | CCCOc1cc(OC)cc(OC(=O)CC)c1C(=O)/C=C/c1ccc(OC)cc1 [4,4'-dimethoxy-2'-(propionyloxy)-6'-propoxychalcone] | 0.03 to 0.1 (≈ 0.0753 to 0.251 µM) |  |  |  | > 500 | > 1000 |  |  | 
18 | COc1cc(O)c(C(=O)C=Cc2ccco2)c(OC)c1 [3-(2-furyl)-2'-hydroxy-4',6'-dimethoxyacrylophenone] | 0.06 to 0.2 (≈ 0.219 to 0.729 µM) |  |  |  | > 500 | > 1500 |  |  | 
19 | COc1ccc(/C=C/C(=O)c2ccc(OC)cc2O)cc1 [2'-hydroxy-4,4'-dimethoxychalcone] | 0.3 to 1 (≈ 1.06 to 3.52 µM) |  |  |  | > 1000 | > 2500 |  |  | 
20 | C=CCOc1ccc(/C=C/C(=O)c2c(O)cc(OC)cc2OC)cc1 [4-(allyloxy)-2'-hydroxy-4',6'-dimethoxychalcone] | 0.03 to 0.1 (≈ 0.0881 to 0.294 µM) |  |  |  | > 500 | > 1000 |  |  | 
21 | COc1cc(/C=C/C(=O)c2c(O)cc(OC)cc2OC)cc(OC)c1 [2'-hydroxy-3,4',5,6'-tetramethoxychalcone] | 0.3 (≈ 0.871 µM) |  |  |  | > 500 | > 5000 |  |  | 
22 | CCOc1ccc(/C=C/C(=O)c2c(OCC)cc(OCC)cc2OC(=O)CC)cc1 [2',4,4'-triethoxy-6'-(propionyloxy)-chalcone] | 0.1 to 0.3 (≈ 0.242 to 0.727 µM) |  |  |  | > 1000 | > 5000 |  |  | 
23 | COc1cc(O)c(C(=O)/C=C/c2ccc(OCc3ccccc3)c(OC)c2)c(OC)c1 [4-(benzyloxy)-2'-hydroxy-3,4',6'-trimethoxychalcone] | 1 (≈ 2.38 µM) |  |  |  | > 500 | > 1500 |  |  | 
24 | CCOc1cc(O)c(C(=O)C=Cc2ccc(C)o2)c(OC)c1 [4'-ethoxy-2'-hydroxy-6'-methoxy-3-(5-methyl-2-furyl)-acrylophenone] | 0.03 (≈ 0.0992 µM) |  |  |  | > 500 | > 1000 |  |  | 
25 | CCC(=O)Oc1cc(OC)cc(OC)c1C(=O)C=Cc1cccs1 [2',4'-dimethoxy-6'-(propionyloxy)-3-(2-thienyl)-acrylophenone] | 0.1 to 0.3 (≈ 0.289 to 0.866 µM) |  |  |  | > 1000 | > 5000 |  |  | 
26 | COc1cc(O)c(C(=O)C=Cc2cccs2)c(OC)c1 [2'-hydroxy-4',6'-dimethoxy-3-(2-thienyl)-acrylophenone] | 0.03 (≈ 0.103 µM) |  | 30 | 70 | > 1000 | > 5000 |  |  | 
27 | COc1ccc(/C=C/C(=O)c2c(O)cc(OC)cc2OC)c(OC)c1 [2'-hydroxy-2,4,4',6'-tetramethoxychalcone] | 0.1 (≈ 0.29 µM) |  |  |  | > 500 | > 1000 |  |  | 
28 | CCOC(=O)Oc1cc(OC)cc(OC)c1C(=O)/C=C/c1ccc(OC)cc1 [2'-(ethoxycarbonyloxy)-4,4',6'-trimethoxychalcone] | 0.04 (≈ 0.104 µM) |  |  |  | > 500 | > 4000 |  |  | 
29 | CCOc1cc(O)c(C(=O)C=Cc2ccc(C)o2)c(OCC)c1 [2',4'-diethoxy-6'-hydroxy-3-(5-methyl-2-furyl)-acrylophenone] | 0.04 to 0.12 (≈ 0.126 to 0.379 µM) |  |  |  | > 500 | > 1000 |  |  | 
